# In US8809232B2, “Herbicidal compositions comprising 4-amino-3-chloro-5-fluoro-6-(4-chloro-2-fluoro-3-methoxyphenyl) pyridine-2-carboxylic acid or a derivative thereof and halosulfuron, pyrazosulfuron and esprocarb” (Dow Agrosciences LLC, priority 2012, dated 2014):
# Assays:
# [1] = tested on: BRAPP; experiment: Post-emergence foliar-applied herbicidal mixtures, greenhouse, direct seeded rice weeds; assay type: in vivo; details: 4.38 g ae/ha
# Source text: (§1) Seeds or nutlets of the desired test plant species were planted in a soil matrix prepared by mixing a loam or sandy loam soil (e.g., 28.6 percent silt, 18.8 percent clay, and 52.6 percent sand, with a pH of about 5.8 and an organic matter content of about 1.8 percent) and calcareous grit in an 80 to 20 ratio. The soil matrix was contained in plastic pots with a volume of 1 quart and a surface area of 83.6 square centimeters (cm^2). When required to ensure good germination and healthy plants, a fungicide treatment and/or other chemical or physical treatment was applied. The plants were grown for 8-22 days in a greenhouse with an approximate 14 hr photoperiod which was maintained at about 29° C. during the day and 26° C. during the night. Nutrients (Peters Excel® 15-5-15 5-Ca 2-Mg and iron chelate) were applied in the irrigation solution as needed and water was added on a regular basis. Supplemental lighting was provided with overhead metal halide 1000-Watt lamps as necessary. The plants were employed for testing when they reached the first through fourth true leaf stage.
# (§2) Treatments consisted of the acid or esters of 4-amino-3-chloro-5-fluoro-6-(4-chloro-2-fluoro-3-methoxy-phenyl)pyridine-2-carboxylic acid (Compound A), each formulated as an SC (suspension concentrate), and various herbicidal components alone and in combination. Forms of compound A were applied on an acid equivalent basis.
# (§3) Other herbicidal components were applied on an active ingredient basis and included the acetolactate synthase (ALS)-inhibiting herbicides halosulfuron-methyl formulated as Permit® 75 WDG, pyrazosulfuron-ethyl formulated as Agreen® WG or Sirius® G, and the VLCFA inhibiting herbicide esprocarb (technical grade material).
# (§4) Treatment requirements were calculated based upon the rates being tested, the concentration of active ingredient or acid equivalent in the formulation, and a 12 mL application volume at a rate of 187 L/ha.
# (§5) For treatments comprised of formulated compounds, measured amounts of compounds were placed individually in 25 mL glass vials and diluted in a volume of 1.25% (v/v) Agri-Dex® crop oil concentrated to obtain 12× stock solutions. […] Application solutions were prepared by adding an appropriate amount of each stock solution (e.g., 1 mL) and diluted to the appropriate final concentrations with the addition of 10 mL of an aqueous mixture of 1.25% (v/v) crop oil concentrate so that the final spray solutions contained 1.25+/−0.05% (v/v) crop oil concentrate.
# (§6) For treatments comprised of technical compounds, weighed amounts can be placed individually in 25 mL glass vials and dissolved in a volume of 97:3 v/v acetone/DMSO to obtain 12× stock solutions. […] Application solutions can be prepared by adding an appropriate amount of each stock solution (e.g., 1 mL) and diluted to the appropriate final concentrations with the addition of 10 mL of an aqueous mixture of 1.5% (v/v) crop oil concentrate so that the final spray solutions contain 1.25% (v/v) crop oil concentrate. When technical materials are used, the concentrated stock solutions can be added to the spray solutions so that the final acetone and DMSO concentrations of the application solutions are 16.2% and 0.5%, respectively.
# (§7) For treatments comprised of formulated and technical compounds, weighed amounts of the technical materials were placed individually in 25 mL glass vials and dissolved in a volume of 97:3 v/v acetone/DMSO to obtain 12× stock solutions, and measured amounts of the formulated compounds were placed individually in 25 mL glass vials and diluted in a volume of 1.5% (v/v) crop oil concentrate or water to obtain 12× stock solutions. […] Application solutions were prepared by adding an appropriate amount of each stock solution (e.g., 1 mL) and diluted to the appropriate final concentrations with the addition of an appropriate amount of an aqueous mixture of 1.5% (v/v) crop oil concentrate so that the final spray solutions contained 1.25% (v/v) crop oil concentrate. […]
# [2] = tested on: SCPMA; experiment: In-water applied herbicidal mixtures, greenhouse, transplanted paddy rice weeds; assay type: in vivo
# Method: (§8) Weed seeds or nutlets of the desired test plant species were planted in puddled soil (mud) prepared by mixing a shredded, non-sterilized mineral soil (50.5 percent silt, 25.5 percent clay, and 24 percent sand, with a pH of about 7.6 and an organic matter content of about 2.9 percent) and water at a 1:1 volumetric ratio. The prepared mud was dispensed in 365 mL aliquots into 16-ounce (oz.) non-perforated plastic pots with a surface area of 86.59 square centimeters (cm^2) leaving a headspace of 3 centimeters (cm) in each pot Mud was allowed to dry overnight prior to planting or transplanting. Rice seeds were planted in Sun Gro MetroMix® 306 planting mixture, which typically has a pH of 6.0 to 6.8 and an organic matter content of about 30 percent, in plastic plug trays. Seedlings at the second or third leaf stage of growth were transplanted into 840 mL of mud contained in 32-oz. non-perforated plastic pots with a surface area of 86.59 cm^2 4 days prior to herbicide application. The paddy was created by filling the headspace of the pots with 2.5 to 3 cm of water. When required to ensure good germination and healthy plants, a fungicide treatment and/or other chemical or physical treatment was applied. The plants were grown for 4-22 days in a greenhouse with an approximate 14 hr photoperiod which was maintained at about 29′C during the day and 26° C. during the night. Nutrients were added as Osmocote® (19:6:12, N:P:K^+ minor nutrients) at 2 g per 16-oz. pot and 4 g per 32-oz. pot. Water was added on a regular basis to maintain the paddy flood, and supplemental lighting was provided with overhead metal halide 1000-Watt lamps as necessary. The plants were employed for testing when they reached the first through fourth true leaf stage.
# as §2, with “(compound A)” for “(Compound A),”, “concentrate)” for “concentrate),”
# (§9) Other herbicidal components were applied on an active ingredient basis and included acetolactate synthase (ALS)-inhibiting herbicides formulated as Permit® 75 WDG, pyrazosulfuron-ethyl formulated as Agreen® WG or Sirius® G, and VLCFA inhibiting herbicide esprocarb (technical grade material).
# (§10) Treatment requirements for each compound or herbicidal component were calculated based upon the rates being tested, the concentration of active ingredient or acid equivalent in the formulation, an application volume of 2 mL per component per pot, and an application area of 86.59 cm^2 per pot.
# (§11) For formulated compounds, a measured amount was placed in an individual 100 or 200 mL glass vial and was dissolved in a volume of 1.25% (v/v) Agri-Dex® crop oil concentrate to obtain application solutions.
# (§12) For technical grade compounds, a weighed amount was placed in an individual 100 to 200 mL glass vial and was dissolved in a volume of acetone to obtain concentrated stock solutions. […] The concentrated stock solutions obtained were diluted with an equivalent volume of an aqueous mixture containing 2.5% (v/v) crop oil concentrate so that the final application solutions contained 1.25% (v/v) crop oil concentrate.
# (§13) Applications were made by injecting with a pipetter appropriate amounts of the application solutions, individually and sequentially, into the aqueous layer of the paddy. Control plants were treated in the same manner with the solvent blank. Applications were made so that all treated plant material received the same concentrations of acetone and crop oil concentrate.
# (§14) The treated plants and control plants were placed in a greenhouse as described above and water was added as needed to maintain a paddy flood. […]
# [3] = tested on: DIGSA; experiment: Post-emergence foliar-applied herbicidal mixtures, greenhouse, direct seeded rice weeds; assay type: in vivo, Digitaria sanguinalis (L.) Scop.
# Source text: as §1, §2, §3, §4, §5, §6, §7
# [4] = tested on: ECHOR; experiment: In-water applied herbicidal mixtures, greenhouse, transplanted paddy rice weeds; assay type: in vivo, Echinochloa oryzoides (Ard.) Fritsch
# Method: as §8
# as §2, with “(compound A)” for “(Compound A),”, “concentrate)” for “concentrate),”
# as §9, §10, §11, §12, §13, §14
# [5] = tested on: SCPJU; experiment: as above; assay type: in vivo, Schoenoplectus juncoides (Roxb.) Palla
# Method: as §8
# as §2, with “(compound A)” for “(Compound A),”, “concentrate)” for “concentrate),”, “basis. […]” for “basis.”
# as §10
# (§15) For formulated compounds, a measured amount was placed in an individual 100 or 200 mL glass vial and was dissolved in a volume of 1.25% (v/v) Agri-Dex® crop oil concentrate to obtain application solutions. […]
# [6] = tested on: CYPRO; experiment: as above; assay type: in vivo, Cyperus rotundus L.
# Method: as §8
# as §2, with “(compound A)” for “(Compound A),”, “concentrate)” for “concentrate),”
# as §9, §10, §11, §12, §13, §14
# [7] = tested on: FIMMI; experiment: as above; assay type: in vivo, Fimbristylis miliacea (L.) Vahl
# Method: as §8
# as §2, with “(compound A)” for “(Compound A),”, “concentrate)” for “concentrate),”
# as §9, §10, §11, §12
# Applications were made by injecting with a pipetter appropriate amounts of the application solutions, individually and sequentially, into the aqueous layer of the paddy. […]
# [8] = tested on: ECHCG; experiment: as above; assay type: in vivo, Echinochloa crus-galli (L.) Beauv.
# Method: as §8, with “Water was added on a regular basis to maintain the paddy flood, and supplemental lighting was provided with overhead metal halide 1000-Watt lamps as necessary. The plants were employed for testing when they reached the first through fourth true leaf stage.” left out
# as §10, §15
# [9] = tested on: ECHCO; experiment: Post-emergence foliar-applied herbicidal mixtures, greenhouse, direct seeded rice weeds; assay type: in vivo, Echinochloa colona (L.) Link
# Source text: as §1, with “stage. […]” for “stage.”
# as §4
# For treatments comprised of formulated compounds, measured amounts of compounds were placed individually in 25 mL glass vials and diluted in a volume of 1.25% (v/v) Agri-Dex® crop oil concentrated to obtain 12× stock solutions. […]
# For treatments comprised of formulated and technical compounds, weighed amounts of the technical materials were placed individually in 25 mL glass vials and dissolved in a volume of 97:3 v/v acetone/DMSO to obtain 12× stock solutions, and measured amounts of the formulated compounds were placed individually in 25 mL glass vials and diluted in a volume of 1.5% (v/v) crop oil concentrate or water to obtain 12× stock solutions. […]
# [10] = tested on: LEFCH; experiment: as above; assay type: in vivo, Leptochloa chinensis (L.) Nees; details: 35 g ae/ha
# Source text: as §1, §2, §3, §4, §5, §6, §7
smiles,measurement,setting,value
"COc1c(Cl)ccc(-c2nc(C(=O)O)c(Cl)c(N)c2F)c1F [Compound A Acid, 4-amino-3-chloro-5-fluoro-6-(4-chloro-2-fluoro-3-methoxy-phenyl)pyridine-2-carboxylic acid]",Visual Weed Control (%) - 20 DAA BRAPP Obs,[1],50%
same,Visual Weed Control (%) - 22 DAA BRAPP Obs,[1],45%
same,Visual Weed Control (%) - 22 DAA SCPMA Obs,[2]; 8.75 g ae/ha,0%
same,Visual Weed Control (%) - 22 DAA SCPMA Obs,[2]; 17.5 g ae/ha,0%
same,Visual Weed Control (%) - 22 DAA SCPMA Obs,[2]; 35 g ae/ha,0%
same,Visual Weed Control (%) - 20 DAA SCPMA Obs,[2]; 42.4 g ae/ha,0%
same,Visual Weed Control (%) - 20 DAA SCPMA Obs,[2]; 84.8 g ae/ha,0%
same,Visual Weed Control (%) - 20 DAA DIGSA Obs,[3]; 21.2 g ae/ha,10%
same,Visual Weed Control (%) - 20 DAA DIGSA Obs,[3]; 42.4 g ae/ha,25%
same,Visual Weed Control (%) - 22 DAA ECHOR Obs,[4]; 8.75 g ae/ha,0%
same,Visual Weed Control (%) - 22 DAA ECHOR Obs,[4]; 17.5 g ae/ha,0%
same,Visual Weed Control (%) - 22 DAA ECHOR Obs,[4]; 35 g ae/ha,20%
same,Visual Weed Control (%) - 20 DAA ECHOR Obs,[4]; 42.4 g ae/ha,18%
same,Visual Weed Control (%) - 20 DAA ECHOR Obs,[4]; 84.8 g ae/ha,33%
same,Visual Weed Control (%) - 21 DAA SCPJU Obs,[5]; 8.75 g ae/ha,40%
same,Visual Weed Control (%) - 21 DAA SCPJU Obs,[5]; 17.5 g ae/ha,60%
same,Visual Weed Control (%) - 21 DAA CYPRO Obs,[6]; 8.75 g ae/ha,30%
same,Visual Weed Control (%) - 21 DAA CYPRO Obs,[6]; 17.5 g ae/ha,50%
same,Visual Weed Control (%) - 21 DAA CYPRO Obs,[6]; 35 g ae/ha,65%
same,Visual Weed Control (%) - 21 DAA FIMMI Obs,[7]; 8.75 g ae/ha,0%
same,Visual Weed Control (%) - 21 DAA FIMMI Obs,[7]; 17.5 g ae/ha,95%
same,Visual Weed Control (%) - 21 DAA ECHCG Obs,[8]; 8.75 g ae/ha,0%
same,Visual Weed Control (%) - 21 DAA ECHCG Obs,[8]; 17.5 g ae/ha,30%
same,Visual Weed Control (%) - 22 DAA ECHCO Obs,[9]; 4.38 g ae/ha,65%
same,Visual Weed Control (%) - 22 DAA ECHCO Obs,[9]; 8.75 g ae/ha,80%
CCCCOC(=O)c1nc(-c2ccc(Cl)c(OC)c2F)c(F)c(N)c1Cl [Compound A n-Butyl Ester],Visual Weed Control (%) - 20 DAA LEFCH Obs,[10],48%
same,Visual Weed Control (%) - 20 DAA SCPMA Obs,[2]; 35 g ae/ha,0%
same,Visual Weed Control (%) - 20 DAA SCPMA Obs,[2]; 70 g ae/ha,0%
same,Visual Weed Control (%) - 20 DAA DIGSA Obs,[3]; 17.5 g ae/ha,13%
same,Visual Weed Control (%) - 20 DAA ECHOR Obs,[4]; 35 g ae/ha,35%
same,Visual Weed Control (%) - 20 DAA ECHOR Obs,[4]; 70 g ae/ha,40%
